Data reported in US8211935B2, “Heterocyclic derivatives for modulation of calcium channels” (Vertex Pharmaceuticals Incorporated, priority 2004, dated 2012).
pIC50: −log10 of the molar value.

Each compound was assayed against T1, CaV2.2 (Homo sapiens, UniProt Q00975) (assay: VIPR optical membrane potential assay with electrical stimulation). Settings: not given.
T1 construct: expressed in transfected cells; host or cells: HEK293
Type: cell-based
Method in brief: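 HEK293 cells stably expressing CaV2.2, stained with CC2-DMPE (10 μM final) and oxonol voltage-sensitive dyes, compound added with BaCl2. Membrane potential response evoked by 3-5 s electrical stimulation. Read as background-subtracted 460/580 nm emission ratio, response R=Rf/Ri, normalized to mibefradil positive and no-drug negative controls.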

T1 sequence (Q00975 whole entry): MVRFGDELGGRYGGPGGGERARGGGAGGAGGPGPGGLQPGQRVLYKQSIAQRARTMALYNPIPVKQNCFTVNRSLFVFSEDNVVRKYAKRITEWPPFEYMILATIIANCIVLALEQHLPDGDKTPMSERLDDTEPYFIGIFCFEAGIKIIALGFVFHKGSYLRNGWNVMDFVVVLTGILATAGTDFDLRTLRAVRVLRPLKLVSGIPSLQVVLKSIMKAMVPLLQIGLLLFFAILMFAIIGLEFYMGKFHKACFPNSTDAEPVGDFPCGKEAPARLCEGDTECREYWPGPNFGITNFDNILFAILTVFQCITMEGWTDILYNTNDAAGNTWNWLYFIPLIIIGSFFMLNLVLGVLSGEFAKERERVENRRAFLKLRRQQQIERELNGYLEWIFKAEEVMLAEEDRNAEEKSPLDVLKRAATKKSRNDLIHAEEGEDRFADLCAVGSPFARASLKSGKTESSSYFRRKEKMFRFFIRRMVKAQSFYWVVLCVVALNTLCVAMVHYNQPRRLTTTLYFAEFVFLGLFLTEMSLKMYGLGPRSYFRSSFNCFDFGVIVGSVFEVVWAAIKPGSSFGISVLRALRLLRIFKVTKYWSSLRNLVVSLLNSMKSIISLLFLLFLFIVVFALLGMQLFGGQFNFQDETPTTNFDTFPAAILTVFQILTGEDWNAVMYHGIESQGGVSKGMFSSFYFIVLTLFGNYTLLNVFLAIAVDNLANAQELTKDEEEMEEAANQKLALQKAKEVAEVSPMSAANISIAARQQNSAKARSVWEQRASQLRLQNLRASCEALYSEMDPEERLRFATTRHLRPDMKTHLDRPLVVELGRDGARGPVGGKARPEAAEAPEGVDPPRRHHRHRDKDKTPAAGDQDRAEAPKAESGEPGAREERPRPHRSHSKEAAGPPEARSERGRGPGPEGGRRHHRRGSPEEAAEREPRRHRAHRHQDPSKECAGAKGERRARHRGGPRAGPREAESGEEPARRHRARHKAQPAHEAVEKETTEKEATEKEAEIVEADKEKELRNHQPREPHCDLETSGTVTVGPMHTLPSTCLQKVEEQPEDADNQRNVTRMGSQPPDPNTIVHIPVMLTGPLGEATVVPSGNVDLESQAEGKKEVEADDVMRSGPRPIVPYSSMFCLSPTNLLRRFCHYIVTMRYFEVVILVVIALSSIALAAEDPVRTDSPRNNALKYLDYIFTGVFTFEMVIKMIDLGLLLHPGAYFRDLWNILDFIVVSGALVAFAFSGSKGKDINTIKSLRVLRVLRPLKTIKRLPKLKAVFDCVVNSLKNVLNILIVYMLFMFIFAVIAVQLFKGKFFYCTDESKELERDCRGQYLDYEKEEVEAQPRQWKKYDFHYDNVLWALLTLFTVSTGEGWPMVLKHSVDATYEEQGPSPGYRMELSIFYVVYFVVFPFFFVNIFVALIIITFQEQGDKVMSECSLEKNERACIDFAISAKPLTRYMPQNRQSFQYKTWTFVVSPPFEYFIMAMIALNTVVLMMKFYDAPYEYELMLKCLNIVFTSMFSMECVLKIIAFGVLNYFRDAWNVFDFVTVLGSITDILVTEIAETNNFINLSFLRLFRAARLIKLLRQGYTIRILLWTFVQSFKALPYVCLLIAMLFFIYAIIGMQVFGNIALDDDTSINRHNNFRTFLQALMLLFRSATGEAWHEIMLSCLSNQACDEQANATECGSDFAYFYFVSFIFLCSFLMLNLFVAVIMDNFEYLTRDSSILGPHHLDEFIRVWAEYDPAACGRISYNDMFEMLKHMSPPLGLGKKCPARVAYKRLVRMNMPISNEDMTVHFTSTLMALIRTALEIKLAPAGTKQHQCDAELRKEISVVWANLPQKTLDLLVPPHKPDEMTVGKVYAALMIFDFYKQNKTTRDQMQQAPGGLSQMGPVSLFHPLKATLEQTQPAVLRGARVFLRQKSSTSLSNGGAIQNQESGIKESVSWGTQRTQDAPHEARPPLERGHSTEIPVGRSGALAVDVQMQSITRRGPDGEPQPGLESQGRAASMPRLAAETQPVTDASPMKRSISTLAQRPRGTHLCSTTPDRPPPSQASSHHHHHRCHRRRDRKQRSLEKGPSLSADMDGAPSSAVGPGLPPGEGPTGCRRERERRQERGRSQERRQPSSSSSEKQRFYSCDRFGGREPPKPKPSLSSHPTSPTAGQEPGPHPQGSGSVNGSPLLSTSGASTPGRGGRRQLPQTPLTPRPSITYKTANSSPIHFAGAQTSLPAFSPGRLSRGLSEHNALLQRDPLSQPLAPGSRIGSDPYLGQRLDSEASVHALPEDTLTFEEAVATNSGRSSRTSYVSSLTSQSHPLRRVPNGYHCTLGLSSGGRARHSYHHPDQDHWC
T1 sequence (P54284 whole entry partner): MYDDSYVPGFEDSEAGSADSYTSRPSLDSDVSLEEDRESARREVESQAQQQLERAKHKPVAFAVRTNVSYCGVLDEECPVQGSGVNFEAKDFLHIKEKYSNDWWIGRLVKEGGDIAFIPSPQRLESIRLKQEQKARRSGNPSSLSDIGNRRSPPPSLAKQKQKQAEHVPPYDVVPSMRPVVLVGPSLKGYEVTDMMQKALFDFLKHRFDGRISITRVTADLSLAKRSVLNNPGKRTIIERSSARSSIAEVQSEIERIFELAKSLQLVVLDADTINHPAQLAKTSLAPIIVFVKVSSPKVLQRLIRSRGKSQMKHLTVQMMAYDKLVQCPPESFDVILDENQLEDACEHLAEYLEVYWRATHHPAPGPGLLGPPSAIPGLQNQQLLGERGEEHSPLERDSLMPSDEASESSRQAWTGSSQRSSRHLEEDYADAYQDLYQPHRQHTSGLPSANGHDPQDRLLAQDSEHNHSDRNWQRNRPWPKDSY
T1 sequence (P54289 25-946 partner limits assumed): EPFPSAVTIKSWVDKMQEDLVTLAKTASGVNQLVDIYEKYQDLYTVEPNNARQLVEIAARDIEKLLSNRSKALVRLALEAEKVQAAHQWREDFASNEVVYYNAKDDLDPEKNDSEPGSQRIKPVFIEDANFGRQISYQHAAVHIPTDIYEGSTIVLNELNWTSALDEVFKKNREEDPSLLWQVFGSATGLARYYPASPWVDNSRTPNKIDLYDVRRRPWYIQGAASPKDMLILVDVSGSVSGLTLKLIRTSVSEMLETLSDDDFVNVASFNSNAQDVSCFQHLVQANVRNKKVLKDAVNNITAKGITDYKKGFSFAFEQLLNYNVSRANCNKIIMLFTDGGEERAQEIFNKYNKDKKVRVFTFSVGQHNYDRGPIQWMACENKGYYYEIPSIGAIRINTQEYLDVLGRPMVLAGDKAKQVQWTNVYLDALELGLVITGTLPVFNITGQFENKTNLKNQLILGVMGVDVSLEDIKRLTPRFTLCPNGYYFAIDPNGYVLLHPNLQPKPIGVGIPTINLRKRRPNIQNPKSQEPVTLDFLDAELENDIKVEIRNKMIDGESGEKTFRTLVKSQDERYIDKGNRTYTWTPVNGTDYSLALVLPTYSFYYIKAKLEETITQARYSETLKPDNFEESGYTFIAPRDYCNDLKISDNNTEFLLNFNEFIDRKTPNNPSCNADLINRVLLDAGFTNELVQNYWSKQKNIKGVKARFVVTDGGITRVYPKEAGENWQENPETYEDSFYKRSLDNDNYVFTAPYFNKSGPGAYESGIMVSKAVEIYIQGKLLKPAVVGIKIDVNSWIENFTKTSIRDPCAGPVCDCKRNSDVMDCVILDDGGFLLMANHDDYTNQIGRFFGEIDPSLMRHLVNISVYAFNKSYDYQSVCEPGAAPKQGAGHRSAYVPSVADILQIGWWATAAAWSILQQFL
T1 sequence (P54289 947-1103 partner limits assumed): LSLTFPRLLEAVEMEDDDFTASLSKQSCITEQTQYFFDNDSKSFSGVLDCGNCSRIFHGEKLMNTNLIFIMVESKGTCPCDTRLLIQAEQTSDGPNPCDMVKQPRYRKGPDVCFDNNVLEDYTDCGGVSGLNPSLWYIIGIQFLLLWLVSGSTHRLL

| SMILES | pIC50 |
| --- | --- |
| Cc1c(C(=O)N2CCC3(CC2)OCCO3)[nH]c2ccc(S(=O)(=O)N3CCCCCC3)cc12 [compound 232] | 4.70 to 5.30 |
| O=C(c1cc2cc(S(=O)(=O)N3CCCCCC3)ccc2[nH]1)N1CCC2(CC1)OCCO2 [compound 252] | 4.70 to 5.30 |
| Cc1c(C(=O)N2CCC3(CC2)OCCO3)[nH]c2ccc(S(=O)(=O)N3CC(C)CC(C)C3)cc12 (stereo not shown) [compound 253] | > 5.30 |

Same assay, conditions: Table 3, biological assay data; read-out: IC50

| SMILES | pIC50 |
| --- | --- |
| Cc1c(C(=O)NCc2ccccc2)oc2ccc(S(=O)(=O)N3CCC(C)CC3)cc12 [compound 189] | 4.70 to 5.30 |
| CC1CCN(C(=O)c2cc3cc(S(=O)(=O)N4CCCCCC4)ccc3o2)CC1 [compound 190] | > 5.30 |
| CCN(CC)C(=O)c1cc2cc(S(=O)(=O)N3CC(C)CC(C)C3)ccc2n1CC(O)CN1CCN(C)CC1 (stereo not shown) [compound 191] | > 5.30 |
| CNC(=O)c1cc2cc(S(=O)(=O)N3CCC(C)CC3)ccc2[nH]1 [compound 192] | > 5.30 |
| Cc1c(C(=O)N2CCN(C)CC2)oc2ccc(S(=O)(=O)N3CC(C)CC(C)C3)cc12 (stereo not shown) [compound 193] | 4.70 to 5.30 |
| CC1CCN(C(=O)c2cc3cc(S(=O)(=O)N4CC(C)CC(C)C4)ccc3[nH]2)CC1 (stereo not shown) [compound 194] | > 5.30 |
| Cc1c(C(=O)N2CCCC(C)C2)oc2ccc(S(=O)(=O)N3CCOCC3)cc12 (stereo not shown) [compound 195] | > 4.70 |
| CCN(CC)C(=O)c1cc2cc(S(=O)(=O)N3CC(C)CC(C)C3)ccc2[nH]1 (stereo not shown) [compound 196] | > 5.30 |
| Cc1c(C(=O)NCCC2=CCCCC2)oc2ccc(S(=O)(=O)N3CCOCC3)cc12 [compound 197] | > 4.70 |
| CCOC(=O)N1CCN(C(=O)c2[nH]c3ccc(S(=O)(=O)N4CCC(C)CC4)cc3c2C)CC1 [compound 198] | 4.70 to 5.30 |
| CCN(CC)C(=O)c1oc2ccc(S(=O)(=O)N3CCCC(C)C3)cc2c1C (stereo not shown) [compound 199] | > 5.30 |
| Cc1c(C(=O)NCC2COc3ccccc3O2)oc2ccc(S(=O)(=O)N(C)C3CCCCC3)cc12 (stereo not shown) [compound 200] | 4.70 to 5.30 |
| Cc1c(C(=O)NCCc2ccccc2)oc2ccc(S(=O)(=O)N3CCCCCC3)cc12 [compound 201] | > 5.30 |
| CCN(CC)C(=O)c1oc2ccc(S(=O)(=O)N3CCCCC3)cc2c1C [compound 202] | 4.70 to 5.30 |
| Cc1c(C(=O)NCc2ccccn2)oc2ccc(S(=O)(=O)N3CCC(C)CC3)cc12 [compound 203] | 4.70 to 5.30 |
| Cc1c(C(=O)NC(C)C)oc2ccc(S(=O)(=O)N3CCC(F)(F)CC3)cc12 [compound 204] | 4.70 to 5.30 |
| Cc1c(C(=O)NCC2CCCO2)oc2ccc(S(=O)(=O)N3CCCC(C)C3)cc12 (stereo not shown) [compound 205] | 4.70 to 5.30 |
| Cc1c(C(=O)N(C)Cc2ccccc2)[nH]c2ccc(S(=O)(=O)N3CCC(C)CC3)cc12 [compound 206] | > 5.30 |
| Cc1c(C(=O)NC2CC2)oc2ccc(S(=O)(=O)Nc3ccncc3)cc12 [compound 207] | > 4.70 |
| CC1CCN(S(=O)(=O)c2ccc3oc(C(=O)N4CCCCC4C)cc3c2)CC1 (stereo not shown) [compound 208] | > 5.30 |
| CC1CC(C)CN(S(=O)(=O)c2ccc3[nH]c(C(=O)NC4CC4)cc3c2)C1 (stereo not shown) [compound 209] | > 5.30 |
| Cc1c(C(=O)NC2CC2)oc2ccc(S(=O)(=O)N3CCCC3)cc12 [compound 210] | > 4.70 |
| CCOC(=O)N1CCN(C(=O)c2oc3ccc(S(=O)(=O)N4CCCCCC4)cc3c2C)CC1 [compound 211] | > 5.30 |
| CCNC(=O)c1oc2ccc(S(=O)(=O)N3CC(C)CC(C)C3)cc2c1C (stereo not shown) [compound 212] | > 5.30 |
| Cc1c(C(=O)N(C)Cc2ccccc2)oc2ccc(S(=O)(=O)N3CCCC(C)C3)cc12 (stereo not shown) [compound 213] | > 5.30 |
| CNC(=O)c1oc2ccc(S(=O)(=O)N3CC(C)CC(C)C3)cc2c1C (stereo not shown) [compound 214] | > 5.30 |

| SMILES | pIC50 |
| --- | --- |
| CCN(CC)S(=O)(=O)c1ccc2oc(C(=O)NC3CCC(C)CC3)c(C)c2c1 (stereo not shown) [compound 215] | 4.70 to 5.30 |
| CNC(=O)c1[nH]c2ccc(S(=O)(=O)N3CC(C)CC(C)C3)cc2c1C (stereo not shown) [compound 216] | > 5.30 |
| CC1CC(C)CN(S(=O)(=O)c2ccc3[nH]c(C(=O)N(C(C)C)C(C)C)cc3c2)C1 (stereo not shown) [compound 217] | > 5.30 |
| CC(C)NC(=O)c1cc2cc(S(=O)(=O)N3CCCCCC3)ccc2o1 [compound 218] | 4.70 to 5.30 |
| CC1CCN(S(=O)(=O)c2ccc3oc(C(=O)NC4CCCCC4)cc3c2)CC1 [compound 219] | 4.70 to 5.30 |
| CN1CCN(C(=O)c2cc3cc(S(=O)(=O)N4CCCCCC4)ccc3[nH]2)CC1 [compound 220] | 4.70 to 5.30 |
| CCNC(=O)c1[nH]c2ccc(S(=O)(=O)N3CC(C)CC(C)C3)cc2c1C (stereo not shown) [compound 221] | 4.70 to 5.30 |
| O=C(c1cc2cc(S(=O)(=O)N3CCCCCC3)ccc2o1)N1CCCC1 [compound 222] | 4.70 to 5.30 |
| Cc1c(C(=O)NCCCc2ccccc2)[nH]c2ccc(S(=O)(=O)N3CCC(C)CC3)cc12 [compound 223] | > 5.30 |
| Cc1c(C(=O)NC2CC2)oc2ccc(S(=O)(=O)Nc3ccccc3)cc12 [compound 224] | 4.70 to 5.30 |
| CC1CC(C)CN(S(=O)(=O)c2ccc3oc(C(=O)NCCC4CCOCC4)cc3c2)C1 (stereo not shown) [compound 225] | > 5.30 |
| CC1CC(C)CN(C(=O)c2cc3cc(S(=O)(=O)N4CCCCCC4)ccc3o2)C1 (stereo not shown) [compound 226] | > 5.30 |
| Cc1c(C(=O)N2CCCC(C)C2)[nH]c2ccc(S(=O)(=O)N3CC(C)CC(C)C3)cc12 (stereo not shown) [compound 227] | > 5.30 |
| Cc1c(C(=O)NC2CC2)oc2ccc(S(=O)(=O)Nc3ccc(F)cc3)cc12 [compound 228] | > 4.70 |
| CCCCN(C)C(=O)c1cc2cc(S(=O)(=O)N3CC(C)CC(C)C3)ccc2o1 (stereo not shown) [compound 229] | > 5.30 |
| CCN(CC)C(=O)c1cc2cc(S(=O)(=O)N3CC(C)CC(C)C3)ccc2n1CCCN(C)C (stereo not shown) [compound 230] | 4.70 to 5.30 |
| CC1CCN(S(=O)(=O)c2ccc3oc(C(=O)N4CCCC4)cc3c2)CC1 [compound 231] | 4.70 to 5.30 |
| Cc1c(C(=O)N2CC(C)CC(C)C2)oc2ccc(S(=O)(=O)N3CCCC(C)C3)cc12 (stereo not shown) [compound 233] | > 5.30 |
| CC1CCN(S(=O)(=O)c2ccc3oc(C(=O)NC(C)C)cc3c2)CC1 [compound 234] | > 5.30 |
| CCOC(=O)N1CCN(C(=O)c2[nH]c3ccc(S(=O)(=O)N4CCCCCC4)cc3c2C)CC1 [compound 235] | 4.70 to 5.30 |
| Cc1c(C(=O)N2CCSCC2)oc2ccc(S(=O)(=O)N3CCC(C)CC3)cc12 [compound 236] | 4.70 to 5.30 |
| Cc1c(C(=O)NC2CC2)oc2ccc(S(=O)(=O)NCc3ccccc3)cc12 [compound 237] | > 4.70 |
| Cc1c(C(=O)NCC2CCCO2)oc2ccc(S(=O)(=O)N3CCC(C)CC3)cc12 (stereo not shown) [compound 238] | 4.70 to 5.30 |
| Cc1c(C(=O)N2CCCCC2C)[nH]c2ccc(S(=O)(=O)N3CCC(C)CC3)cc12 (stereo not shown) [compound 239] | 4.70 to 5.30 |
| CC1CC(C)CN(S(=O)(=O)c2ccc3oc(C(=O)N4CCCCCC4)cc3c2)C1 (stereo not shown) [compound 240] | > 5.30 |
| CC1CC(C)CN(S(=O)(=O)c2ccc3[nH]c(C(=O)N4CCCCC4C)cc3c2)C1 (stereo not shown) [compound 241] | > 5.30 |

| SMILES | pIC50 |
| --- | --- |
| Cc1c(C(=O)NCC2CCOCC2)oc2ccc(S(=O)(=O)N3CC(C)CC(C)C3)cc12 (stereo not shown) [compound 242] | > 5.30 |
| Cc1c(C(=O)N2CC(C)CC(C)C2)oc2ccc(S(=O)(=O)N3CCCCCC3)cc12 (stereo not shown) [compound 243] | 4.70 to 5.30 |
| CCN(CC)C(=O)c1cc2cc(S(=O)(=O)N3CCC(C)CC3)ccc2n1C [compound 244] | > 5.30 |
| COc1ccccc1CNC(=O)c1oc2ccc(S(=O)(=O)N3CCCCCC3)cc2c1C [compound 245] | 4.70 to 5.30 |
| CC1CCN(S(=O)(=O)c2ccc3oc(C(=O)N4CCCCCC4)cc3c2)CC1 [compound 246] | > 5.30 |
| Cc1c(C(=O)NC2CCCC2)oc2ccc(S(=O)(=O)N3CC(C)CC(C)C3)cc12 (stereo not shown) [compound 247] | > 5.30 |
| O=C(NCCc1ccccc1)c1cc2cc(S(=O)(=O)N3CCCCCC3)ccc2[nH]1 [compound 248] | > 5.30 |
| Cc1c(C(=O)NCC2CCCO2)oc2ccc(S(=O)(=O)N3CCCCCC3)cc12 (stereo not shown) [compound 249] | 4.70 to 5.30 |
| CCN(CC)S(=O)(=O)c1ccc2oc(C(=O)NCc3ccccc3)c(C)c2c1 [compound 250] | 4.70 to 5.30 |
| CC1CC(C)CN(S(=O)(=O)c2ccc3[nH]c(C(N)=O)cc3c2)C1 (stereo not shown) [compound 251] | 4.70 to 5.30 |
| CCCN(CC1CC1)C(=O)c1cc2cc(S(=O)(=O)N3CC(C)CC(C)C3)ccc2[nH]1 (stereo not shown) [compound 254] | > 5.30 |
| COc1ccc(CNS(=O)(=O)c2ccc3oc(C(=O)NC4CC4)c(C)c3c2)cc1 [compound 255] | > 4.70 |
| CCNC(=O)c1oc2ccc(S(=O)(=O)N3CCC(C)CC3)cc2c1C [compound 256] | 4.70 to 5.30 |
| Cc1c(C(=O)NC2CC2)oc2ccc(S(=O)(=O)N3CCCCC3)cc12 [compound 257] | > 4.70 |
| Cc1c(C(=O)NC2CCCC2)[nH]c2ccc(S(=O)(=O)N3CCCCCC3)cc12 [compound 258] | 4.70 to 5.30 |
| Cc1c(C(=O)N(C)C)oc2ccc(S(=O)(=O)N3CCOCC3)cc12 [compound 259] | > 4.70 |
| Cc1c(C(=O)NC2CCCC2)oc2ccc(S(=O)(=O)N3CCCCC3)cc12 [compound 260] | > 5.30 |
| Cc1c(C(=O)NC2CC2)oc2ccc(S(=O)(=O)N(C)c3ccccn3)cc12 [compound 261] | > 4.70 |
| Cc1c(C(=O)N(C(C)C)C(C)C)[nH]c2ccc(S(=O)(=O)N3CCC(C)CC3)cc12 [compound 262] | > 5.30 |
| Cc1c(C(=O)N(C(C)C)C(C)C)oc2ccc(S(=O)(=O)N3CCCC(C)C3)cc12 (stereo not shown) [compound 263] | > 5.30 |
| Cc1c(C(=O)NC(C)C)oc2ccc(S(=O)(=O)N3CCCC(F)(F)C3)cc12 [compound 264] | > 4.70 |
| CCNC(=O)c1cc2cc(S(=O)(=O)N3CCCCCC3)ccc2o1 [compound 265] | 4.70 to 5.30 |
| CC1CCN(S(=O)(=O)c2ccc3oc(C(=O)NCCC4CCOCC4)cc3c2)CC1 [compound 266] | > 5.30 |
| Cc1c(C(=O)NCc2ccccc2)oc2ccc(S(=O)(=O)N3CCOCC3)cc12 [compound 267] | > 4.70 |
